Here are results for 22 compounds from PubChem BioAssay (NCI).

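Dose response: 5 concentrations. Exposure: 48 h. Format: 96-well plates. Endpoint: linear interpolation; highest concentration if not reached. The concentration for 50% growth inhibition is given as GI50. TGI denotes the concentration required for complete inhibition of growth.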 Some results are limits rather than exact numbers.

What is called TGI is the concentration giving total growth inhibition. Low readings indicate greater sensitivity of the cells, high ones lower sensitivity of the cells. By GI50 is commonly meant the concentration that inhibits growth by half.

Some test systems named below: MALME-3M melanoma; UO-31 renal; SK-MEL-2 melanoma; OVCAR-3 ovarian; M14 melanoma; CAKI-1 renal; COLO 205 colon; ACHN renal; 786-0 renal; SF-539 CNS.
Test in all cases: DTP human tumour cell line panel, 48 h

Consider `COc1ccc(CC(CO)NC(=O)OCc2ccccc2)cc1Oc1ccc(CC(CO)NC(=O)OCc2ccccc2)cc1` (stereo not drawn), for which the TGI turned out to be 31.4 µM in the test on MALME-3M melanoma; 31.4 µM with UO-31 renal; 32.4 µM in the test on SK-MEL-2 melanoma; 27.4 µM with OVCAR-3 ovarian; 23.3 µM in the test with M14 melanoma; 44.5 µM in the test with CAKI-1 renal. This compound also registered a TGI in the test on COLO 205 colon of 64.9 µM.

In the case of `CC(C)(C)C1=Cc2cc3cc(C(C)(C)C)[nH]c(=O)c3cc2S(=O)(=O)N1`, the TGI was 57.7 µM in the test with MALME-3M melanoma; 35.8 µM with UO-31 renal; 38.2 µM in the test on SK-MEL-2 melanoma; 89.3 µM in the test on ACHN renal; 59.3 µM with OVCAR-3 ovarian; 29.7 µM in the test with M14 melanoma. Besides, the concentration for total growth inhibition (TGI) is more than 100 µM with 786-0 renal, 38.5 µM with CAKI-1 renal and 39.9 µM in the test on COLO 205 colon.

For `COP(=O)(O)/C=C/C(NC(=O)C(Cl)(Cl)Cl)c1ccccc1` (stereo not drawn), the TGI with MALME-3M melanoma, with UO-31 renal, with SK-MEL-2 melanoma, in the test on ACHN renal, in the test with OVCAR-3 ovarian and in the test on M14 melanoma was more than 100 µM each time. Also, the concentration for total growth inhibition (TGI) in the test on 786-0 renal, in the test on CAKI-1 renal and with COLO 205 colon was more than 100 µM each time.

Regarding `CN(C)c1nc(=NCc2ccncc2)ss1`, the concentration for total growth inhibition (TGI) with SF-539 CNS was more than 67 µM; in the test with MALME-3M melanoma, more than 31.6 µM; with UO-31 renal, more than 80.9 µM; with ACHN renal, 18.7 µM; with OVCAR-3 ovarian, more than 82.3 µM; with M14 melanoma, 36.1 µM. Besides, the TGI in the test on 786-0 renal was 31.5 µM; in the test with CAKI-1 renal, more than 56.3 µM; in the test on COLO 205 colon, more than 100 µM.

In the case of `CC(=O)OC[C@]1(C(=O)C(O)c2ccoc2)[C@H](C)CC[C@@]23COC(=O)C2=CCC[C@@H]31` (stereo partly drawn), the TGI in the test with SF-539 CNS, in the test with UO-31 renal, in the test on SK-MEL-2 melanoma, with ACHN renal, in the test with OVCAR-3 ovarian and in the test on M14 melanoma was more than 10 µM in each case. Also, the total growth inhibition concentration (TGI) with 786-0 renal, in the test on CAKI-1 renal and with COLO 205 colon was more than 10 µM each time.

As to `N#Cc1nc(-c2cc([N+](=O)[O-])cc([N+](=O)[O-])c2)oc1N`, the total growth inhibition concentration (TGI) with SF-539 CNS, with MALME-3M melanoma, with UO-31 renal, in the test with ACHN renal, with M14 melanoma and in the test with 786-0 renal was more than 10 µM throughout. The concentration for total growth inhibition (TGI) in the test with CAKI-1 renal and with COLO 205 colon was more than 10 µM each time.

Turning to `CCOC(=O)c1[nH]cc(C)c1-c1ccn(-c2ccccc2)c1`, the total growth inhibition concentration (TGI) with SF-539 CNS, in the test on UO-31 renal, in the test on SK-MEL-2 melanoma, with ACHN renal, with OVCAR-3 ovarian and in the test on M14 melanoma was more than 100 µM in each case. Moreover, the TGI in the test on 786-0 renal, in the test with CAKI-1 renal and in the test on COLO 205 colon was more than 100 µM in each case.

As to `COc1ccc(Nc2nc3ccc(C(F)(F)F)cc3nc2C(=O)O)cc1OC`, the TGI in the test with MALME-3M melanoma is more than 100 µM; in the test with UO-31 renal, 43.7 µM; in the test with SK-MEL-2 melanoma, 35.5 µM; in the test with ACHN renal, more than 100 µM; in the test on OVCAR-3 ovarian, 40.8 µM; in the test on 786-0 renal, more than 100 µM. Besides, the concentration for total growth inhibition (TGI) with CAKI-1 renal and in the test on COLO 205 colon was more than 100 µM throughout.

Take `O=C(NC(Cc1c[nH]c2ccccc12)C(=O)O)/C(=C/c1ccccc1O)NC(=O)c1ccccc1` (stereo not drawn): the TGI in the test with SF-539 CNS was 40.6 µM; with MALME-3M melanoma, more than 100 µM; in the test with UO-31 renal, 18.7 µM; in the test with ACHN renal it was 33.3 µM; in the test on M14 melanoma, more than 100 µM; with 786-0 renal, 46.9 µM. The TGI in the test with CAKI-1 renal is 36.9 µM; in the test on COLO 205 colon, more than 100 µM.

In the case of `CCN(CC)CCOC(NC(C)=O)(c1ccccc1)c1ccccc1`, the total growth inhibition concentration (TGI) in the test with SF-539 CNS, in the test with MALME-3M melanoma, in the test with UO-31 renal, in the test on ACHN renal, in the test on M14 melanoma and with 786-0 renal was more than 100 µM each time. The compound further came in with a total growth inhibition concentration (TGI) with COLO 205 colon of more than 100 µM.

Regarding `O=[N+]([O-])C(=C(N1CCCCC1)N1CCCCC1)/C(Cl)=C(\Cl)Br`, the TGI in the test with SF-539 CNS is 69.2 µM; with MALME-3M melanoma, 64.9 µM; in the test with UO-31 renal it was more than 100 µM; in the test on ACHN renal, 79.5 µM; with OVCAR-3 ovarian it was 81.4 µM; in the test with M14 melanoma it was 59.1 µM. Besides, the figures for the concentration for total growth inhibition (TGI) in the test on 786-0 renal, in the test with CAKI-1 renal and in the test on COLO 205 colon were 67.8 µM, 26.6 µM and 38.7 µM, respectively.

Consider `Cc1cn2c(/C=C3/C(=O)Nc4cccc(Cl)c43)c(Cl)nc2s1`, for which the TGI with MALME-3M melanoma, in the test on UO-31 renal, in the test on ACHN renal, with OVCAR-3 ovarian, in the test with M14 melanoma and in the test on 786-0 renal was more than 100 µM throughout. For the same compound, the TGI with CAKI-1 renal was more than 100 µM.

On to `O=C1CCC(=Nc2ccc(Cl)cc2)N1C(=O)COc1ccc(OCC(=O)N2C(=O)CSC2=Nc2ccc(Cl)cc2)cc1`, for which the TGI with MALME-3M melanoma, in the test with UO-31 renal, in the test with SK-MEL-2 melanoma, in the test on ACHN renal, in the test on OVCAR-3 ovarian and in the test with M14 melanoma was more than 100 µM each time. The total growth inhibition concentration (TGI) in the test with 786-0 renal, in the test on CAKI-1 renal and in the test on COLO 205 colon was more than 100 µM throughout.

With `Cc1cc2c(C)cc(=O)[nH]c2cc1N`, the concentration for total growth inhibition (TGI) in the test on SF-539 CNS, with UO-31 renal, in the test on ACHN renal, with OVCAR-3 ovarian, in the test with M14 melanoma and in the test on 786-0 renal was more than 100 µM throughout. Besides, the TGI in the test on CAKI-1 renal and in the test with COLO 205 colon was more than 100 µM throughout.

For `O=C1/C(=C/c2ccccc2S)N=C(c2ccccc2)N1c1nc2ccc(Sc3ccccc3)cc2[nH]1`, the total growth inhibition concentration (TGI) in the test on MALME-3M melanoma is more than 100 µM; in the test with UO-31 renal it was more than 100 µM; with SK-MEL-2 melanoma, 36.2 µM; in the test on ACHN renal it was more than 100 µM; in the test with OVCAR-3 ovarian it was 57.2 µM; in the test on M14 melanoma it was 49 µM. In addition, the total growth inhibition concentration (TGI) in the test with 786-0 renal was 87.1 µM; with CAKI-1 renal, more than 100 µM; with COLO 205 colon, 34.6 µM.

For the compound `COc1cccc(-c2cc(=O)c3c(C)cc(C)nc3[nH]2)c1`, the TGI in the test on MALME-3M melanoma is more than 100 µM; with UO-31 renal, more than 100 µM; with SK-MEL-2 melanoma it was 97.6 µM; with ACHN renal it was more than 100 µM; in the test on OVCAR-3 ovarian, 0.652 µM; in the test on M14 melanoma it was more than 100 µM. The concentration for total growth inhibition (TGI) is more than 100 µM in the test with 786-0 renal and 0.637 µM in the test on COLO 205 colon.

As to `COC(=O)c1ccccc1/C=C1/Cc2ccccc2C1=O`, the TGI in the test with SF-539 CNS, in the test with MALME-3M melanoma, in the test on UO-31 renal, with ACHN renal, in the test with OVCAR-3 ovarian and in the test on CAKI-1 renal was more than 100 µM throughout. The compound also yielded a total growth inhibition concentration (TGI) in the test on COLO 205 colon of more than 100 µM.

Turning to `c1ccc2c(c1)[nH]c1nc3cc(-c4ccc5nc6c(nc5c4)[nH]c4ccccc46)ccc3nc12`, the TGI in the test with MALME-3M melanoma, with UO-31 renal, with SK-MEL-2 melanoma, in the test on ACHN renal, in the test with M14 melanoma and in the test with 786-0 renal was more than 100 µM each time. Further, the concentration for total growth inhibition (TGI) in the test on CAKI-1 renal is more than 100 µM.

Take `COc1ccc(/C(=N/O)c2ccccc2-c2nc3ccccc3c(=O)n2-c2ccc(S(=O)(=O)Nc3ncccn3)cc2)cc1C`: the total growth inhibition concentration (TGI) is 27.2 µM in the test on SF-539 CNS; more than 31.6 µM in the test with UO-31 renal; 25.1 µM in the test with ACHN renal; 25.9 µM with OVCAR-3 ovarian; more than 31.6 µM in the test with M14 melanoma; more than 31.6 µM in the test on CAKI-1 renal. Moreover, the concentration for total growth inhibition (TGI) in the test on COLO 205 colon is more than 31.6 µM.

For the compound `O=C1C(c2c(O)[nH]c3ccc(S(=O)(=O)O)cc23)=Nc2ccccc21`, the concentration for total growth inhibition (TGI) in the test with MALME-3M melanoma, with UO-31 renal, with SK-MEL-2 melanoma, in the test on ACHN renal, in the test with OVCAR-3 ovarian and in the test on M14 melanoma was more than 100 µM each time. Moreover, the TGI in the test on 786-0 renal, with CAKI-1 renal and in the test with COLO 205 colon was more than 100 µM throughout.

Consider `NC(CSCc1ccccc1)C(=O)O` (stereo not drawn), for which the TGI with MALME-3M melanoma, with UO-31 renal, in the test on SK-MEL-2 melanoma, in the test on ACHN renal, in the test with OVCAR-3 ovarian and in the test on M14 melanoma was more than 100 µM each time. Further, the TGI in the test on 786-0 renal, with CAKI-1 renal and in the test with COLO 205 colon was more than 100 µM throughout.

For the compound `CCCCN1CCN(c2ccc3nc(-c4ccc5nc(-c6ccc(C(F)(F)F)cc6)[nH]c5c4)[nH]c3c2)CC1`, the GI50 in the test with SF-539 CNS is 1.59 µM; in the test on UO-31 renal it was 1.75 µM; in the test with SK-MEL-2 melanoma, 1.76 µM; in the test on ACHN renal it was 1.38 µM; in the test with OVCAR-3 ovarian, 0.614 µM; in the test on M14 melanoma, 1.34 µM. Moreover, the GI50 with CAKI-1 renal is 1.38 µM; in the test with COLO 205 colon, 1.45 µM. For the same compound, the total growth inhibition concentration (TGI) in the test with SF-539 CNS turned out to be 3.02 µM; in the test with UO-31 renal, 3.24 µM; in the test with SK-MEL-2 melanoma, 3.31 µM; with ACHN renal, 2.68 µM; with OVCAR-3 ovarian, 1.12 µM; in the test on M14 melanoma, 2.8 µM. In addition, the concentration for total growth inhibition (TGI) in the test with CAKI-1 renal was 2.69 µM; in the test with COLO 205 colon, 2.95 µM.
